Test system: T1, horseradish peroxidase (HRP)
T1 construct: gene PRXC1A; natural HRP
Assay: steady-state kinetics, Michaelis-Menten fit, absorbance of oxidised TMB ([…] nm)
Assay type: biochemical, Armoracia rusticana
Conditions: co-substrate H2O2; acetate buffer pH 3.6 (printed for the nanozyme assay)

Cc1cc(-c2cc(C)c(N)c(C)c2)cc(C)c1N [3,3′,5,5′-tetramethylbenzidine] gave a Km of 427 µM.

Reference: publication PMC7592081, “Single-Atom Nanozymes Linked Immunosorbent Assay for Sensitive Detection of Aβ 1-40: A Biomarker of Alzheimer's Disease” (Research, 2020)
